We go through two compounds from patent US12048677B2, “Compositions and uses thereof for the treatment of heart failure in domestic animals” (CEVA SANTE ANIMALE, priority 2014, dated 2024).

One assay has as its system healthy dogs. As to the kind of experiment: PK/PD studies of diuretic effect (urinary volume) after one-day and fourteen-day oral administration. Type of assay: in vivo. Conditions: for Urinary volume on day 1 / Urinary volume on day 14: healthy dogs. Here is the method:
Two pharmacokinetics studies (PK/PD) in healthy dogs have been performed to investigate and model the pharmacodynamic effects of torasemide, furosemide and placebo after a one-day and fourteen-day oral administration of furosemide at the following doses: 1 and 4 mg/kg/12 hours, and of torasemide at the following doses: 0.2, 0.25, 0.30 and 0.50 mg/kg/day. • 1 and 4 mg/kg furosemide have been administered to five dogs on the basis of repeated oral administration twice daily for 14 days (corresponding to 2 and 8 mg/kg/day). • 0 (placebo), 0.2, 0.25, 0.30 and 0.50 mg/kg torasemide have been administered to five dogs on the basis of repeated oral administration daily for 14 days.

The test system of assay [1] is dog model having no clinical signs of heart failure. Conditions: 0.2 mg/kg/day torasemide versus 2 mg/kg/day furosemide, seven days; cited from earlier work.
Assay [2] relates to dogs that had become resistant to furosemide. As to conditions: torasemide dose ten times lower (1/10) than reference furosemide dose; cited from earlier work.
Where [3] appears, read: furosemide 2 mg/kg/day (1 mg/kg/12 hours) oral.
The mark [4] stands for this setting: furosemide 8 mg/kg/day (4 mg/kg/12 hours) oral.
The mark [5] stands for this setting: torasemide 0.20 mg/kg/day oral once daily.
[6] abbreviates: torasemide 0.25 mg/kg/day oral once daily.
[7] abbreviates: torasemide 0.30 mg/kg/day oral once daily.
Setting [8] is: torasemide 0.5 mg/kg/day oral once daily.

Regarding `NS(=O)(=O)c1cc(C(=O)O)c(NCc2ccco2)cc1Cl` [Furosemide, furosemide], in the assay with healthy dogs (setting [3]), the “Urinary volume on day 1” value amounted to 374 mL and the “Urinary volume on day 14” value came out at 532 mL. Further, in the assay on healthy dogs (setting [4]), the “Urinary volume on day 1” value stood at 620 mL and the “Urinary volume on day 14” value was determined as 1033 mL.

For the compound `Cc1cccc(Nc2ccncc2S(=O)(=O)NC(=O)NC(C)C)c1` [Torasemide, N-[(isopropylamino)carbonyl]-4-[(3-methylphenyl)amino] pyridine-3-sulfonamide], in assay [1], the “Diuretic potency compared with furosemide” value is “as potent as furosemide”. Besides, the “Duration of diuretic effect compared with furosemide” value in assay [1] is reported as “longer diuretic effect”. The “Diuretic potency compared with reference dose of furosemide” value in assay [2] was “as potent in producing a diuretic effect”. The “Urinary volume compared with test control (placebo)” value with healthy dogs (0.20 to 0.50 mg/kg/day of torasemide, day 1 and day 14) was greater than 220 mL. The “Urinary volume on day 1” value in the assay on healthy dogs (setting [5]) came out at 455 mL; in the assay with healthy dogs (setting [6]), 500 mL; in the assay with healthy dogs (setting [7]), 659 mL; with healthy dogs (setting [8]) it was 700 mL. In addition, the “Urinary volume on day 14” value in the assay with healthy dogs (setting [5]) came to 561 mL; with healthy dogs (setting [6]) it was 696 mL; in the assay with healthy dogs (setting [7]) it was 816 mL; in the assay on healthy dogs (setting [8]), 1100 mL.
